Assay [1] deals with T1, GST tagged LXRalpha LBD (ligand binding domain) (Homo sapiens, UniProt Q13133).
T1 construct: purchased Invitrogen pv4655
T1 sequence (Q13133 209-447 limits assumed): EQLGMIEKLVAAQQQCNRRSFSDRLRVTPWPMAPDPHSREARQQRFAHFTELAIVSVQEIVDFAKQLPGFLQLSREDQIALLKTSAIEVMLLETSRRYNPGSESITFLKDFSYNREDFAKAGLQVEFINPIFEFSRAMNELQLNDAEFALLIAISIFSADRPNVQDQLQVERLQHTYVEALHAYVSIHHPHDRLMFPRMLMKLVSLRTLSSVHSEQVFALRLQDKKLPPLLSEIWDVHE
Put plainly: LanthaScreen TR-FRET Liver X Receptor Coactivator Assay, LXR alpha-LBD (co-activator recruitment; IP and % Emax relative to T0901317). The format is biochemical. The following applies: for LXR alpha IP (nM) / EC50: Inflection Point of co-activator recruitment, LXR alpha-LBD, TR-FRET; for Emax: efficacy at max dose in relation to reference T0901317, LXR alpha-LBD, read-out: LXR alpha actiivty at max dose (%). A digest of the protocol:
(§1)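 Coactivator recruitment is scored against T0901317 as reference dual agonist, giving inflection-point potency and Emax. Compounds met the GST-LBD protein first, then a mix of terbium anti-GST antibody and fluorescein coactivator peptide. TR-FRET was measured after incubation at room temperature.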

Assay [2] has as its target T2, GST tagged LXRbeta LBD (ligand binding domain) (Homo sapiens, UniProt P55055).
T2 construct: purchased Invitrogen pv4658.pps
T2 sequence (P55055 222-460 limits assumed): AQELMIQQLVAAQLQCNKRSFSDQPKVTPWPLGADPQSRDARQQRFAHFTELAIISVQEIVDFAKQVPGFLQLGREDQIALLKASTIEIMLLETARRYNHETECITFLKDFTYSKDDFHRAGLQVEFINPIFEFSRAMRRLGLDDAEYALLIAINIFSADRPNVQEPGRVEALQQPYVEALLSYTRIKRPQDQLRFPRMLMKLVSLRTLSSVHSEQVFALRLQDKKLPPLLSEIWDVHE
Put plainly: LanthaScreen TR-FRET Liver X Receptor Coactivator Assay, LXR beta-LBD (co-activator recruitment; IP and % Emax relative to T0901317). The format is biochemical. The settings on record: for EC50: Inflection Point of co-activator recruitment, LXR beta-LBD, TR-FRET; for Emax: efficacy at max dose in relation to reference T0901317, LXR beta-LBD, read-out: LXR beta actiivty at max dose (%). A digest of the protocol:
as §1
A general note: In TR-FRET formats the signal depends on donor and acceptor labels being close together.

With `COc1cccc([C@@](O)(C(=O)N(C)CCCC2CCN(c3ccc(C(N)=O)c(Cl)n3)CC2)C(F)(F)F)c1` [Example 2-16, (R)-2-chloro-6-(4-(3-(3,3,3-trifluoro-2-hydroxy-2-(3-methoxyphenyl)-N-methylpropanamido)propyl)piperidin-1-yl)nicotinamide], in assay [1], the “LXR alpha IP (nM)” value was “No IP” and the Emax was 12%. Moreover, in assay [2], the 50% effective concentration (EC50) (commonly the concentration needed to bring the measured effect to its halfway point) was 0.296 µM and the Emax stood at 54%.

Take `COc1cccc([C@@](O)(C(=O)N(C)CCCC2CCN(c3ccc(C(=O)N(C)C)c(C4CC4)n3)CC2)C(F)(F)F)c1` [Example 2-17, (R)-2-cyclopropyl-N,N-dimethyl-6-(4-(3-(3,3,3-trifluoro-2-hydroxy-2-(3-methoxyphenyl)-N-methylpropanamido)propyl)piperidin-1-yl)nicotinamide]: in assay [1], the “LXR alpha IP (nM)” value is on record as “No IP” and the Emax turned out to be 0%. Besides, in assay [2], the EC50 is 5.73 µM and the Emax is 22%.

As for `COc1cccc([C@@](O)(C(=O)N(C)CCCC2CCN(c3ccc(C(=O)N(C)C)c(OC)n3)CC2)C(F)(F)F)c1` [Example 2-18, (R)-2-methoxy-N,N-dimethyl-6-(4-(3-(3,3,3-trifluoro-2-hydroxy-2-(3-methoxyphenyl)-N-methylpropanamido)propyl)piperidin-1-yl)nicotinamide], in assay [1], the “LXR alpha IP (nM)” value is given as “No IP” and the Emax turned out to be 0%. In addition, in assay [2], it took 0.523 µM to reach a half-maximal effect (EC50) and the Emax was found to be 47%.

Regarding `CN(C)C(=O)c1ccc(N2CCC(CCCN(C)C(=O)[C@](O)(c3ccccc3)C(F)(F)F)CC2)nc1C#N` [Example 2-19, (R)-2-cyano-N,N-dimethyl-6-(4-(3-(3,3,3-trifluoro-2-hydroxy-N-methyl-2-phenylpropanamido)propyl)piperidin-1-yl)nicotinamide], in assay [1], a half-maximal effect (EC50) was put at 2.61 µM and the Emax is 23%. In assay [2], a half-maximal effect (EC50) was put at 0.128 µM and the Emax amounted to 76%.

Consider `COc1cccc([C@@](O)(C(=O)N(C)CCCC2CCN(c3ccc(C(=O)N(C)C)c(C)n3)CC2)C(F)(F)F)c1` [Example 2-20, (R)-N,N,2-trimethyl-6-(4-(3-(3,3,3-trifluoro-2-hydroxy-2-(3-methoxyphenyl)-N-methylpropanamido)propyl)piperidin-1-yl)nicotinamide], for which, in assay [1], the “LXR alpha IP (nM)” value is on record as “No IP” and the Emax amounted to 0%. In assay [2], the half-maximal effective concentration (EC50) stood at 0.271 µM and the Emax was found to be 64%.

Regarding `COc1cccc([C@@](O)(C(=O)N(C)CCCC2CCN(c3cc(Cl)c(C(=O)N(C)C)cn3)CC2)C(F)(F)F)c1` [Example 2-21, (R)-4-chloro-N,N-dimethyl-6-(4-(3-(3,3,3-trifluoro-2-hydroxy-2-(3-methoxyphenyl)-N-methylpropanamido)propyl)piperidin-1-yl)nicotinamide], in assay [1], it took 5.94 µM to reach a half-maximal effect (EC50) and the Emax came out at 26%. Also, in assay [2], the EC50 came out at 1.91 µM and the Emax amounted to 30%.

In the case of `COc1cccc([C@@](O)(C(=O)N(C)CCCC2CCN(c3ncc(C(=O)N(C)C)cc3Cl)CC2)C(F)(F)F)c1` [Example 2-22, (R)-5-chloro-N,N-dimethyl-6-(4-(3-(3,3,3-trifluoro-2-hydroxy-2-(3-methoxyphenyl)-N-methylpropanamido)propyl)piperidin-1-yl)nicotinamide], in assay [1], the “LXR alpha IP (nM)” value is “No IP” and the Emax was found to be 2%. Moreover, in assay [2], the EC50 stood at 1.12 µM and the Emax is 32%.

In the case of `COc1cccc([C@@](O)(C(=O)N(C)CC(F)CC2CCN(c3ccc(C(=O)N(C)C)c(Cl)n3)CC2)C(F)(F)F)c1` (stereo partly drawn) [Example 3-3, 2-chloro-6-(4-(2-fluoro-3-((R)-3,3,3-trifluoro-2-hydroxy-2-(3-methoxyphenyl)-N-methylpropanamido)propyl)piperidin-1-yl)-N,N-dimethylnicotinamide], in assay [1], the “LXR alpha IP (nM)” value was “No IP” and the Emax amounted to 6%. For the same compound, in assay [2], the half-maximal effective concentration (EC50) was determined as 0.373 µM and the Emax was 49%.

Take `COc1cccc([C@@](O)(C(=O)NC[C@@H](C)CC2CCN(c3ccc(C(=O)N(C)C)c(Cl)n3)CC2)C(F)(F)F)c1` [Example 3-4, 2-chloro-N,N-dimethyl-6-(4-((S)-2-methyl-3-((R)-3,3,3-trifluoro-2-hydroxy-2-(3-methoxyphenyl)propanamido)propyl)piperidin 1-yl)nicotinamide]: in assay [1], the “LXR alpha IP (nM)” value was “No IP” and the Emax was determined as 19%. Besides, in assay [2], the EC50 is 0.134 µM and the Emax worked out at 87%.

With `COc1cccc([C@@](O)(C(=O)NC[C@H](C)CC2CCN(c3ccc(C(=O)N(C)C)c(Cl)n3)CC2)C(F)(F)F)c1` [Example 3-5], in assay [1], a half-maximal response (EC50) required 2.89 µM and the Emax was determined as 22%. In assay [2], the concentration giving a half-maximal response (EC50) amounted to 0.156 µM and the Emax was 57%.

As for `COc1cccc([C@@](O)(C(=O)NC[C@@H](F)CC2CCN(c3ccc(C(=O)N(C)C)c(Cl)n3)CC2)C(F)(F)F)c1` [Example 3-6], in assay [1], the “LXR alpha IP (nM)” value is “No IP” and the Emax stood at 7%. In assay [2], the EC50 came out at 0.961 µM and the Emax was determined as 38%.

As to `COc1cccc([C@@](O)(C(=O)NC[C@H](F)CC2CCN(c3ccc(C(=O)N(C)C)c(Cl)n3)CC2)C(F)(F)F)c1` [Example 3-7, 2-chloro-6-(4-((R)-2-fluoro-3-((R)-3,3,3-trifluoro-2-hydroxy-2-(3-methoxy-phenyl)propanamido)propyl)piperidin-1-yl)-N,N-dimethylnicotinamide], in assay [1], the “LXR alpha IP (nM)” value was “No IP” and the Emax stood at 13%. Also, in assay [2], the EC50 is 0.425 µM and the Emax turned out to be 94%.

In the case of `COc1cccc([C@@](O)(C(=O)N(C)CCCC2CCN(c3ccc(C(=O)N(C)C)c(Cl)c3)CC2)C(F)(F)F)c1` [Example 4-1, (R)-2-chloro-N,N-dimethyl-4-(4-(3-(3,3,3-trifluoro-2-hydroxy-2-(3-methoxyphenyl)-N-methylpropanamido)propyl)piperidin-1-yl)benzamide], in assay [1], the “LXR alpha IP (nM)” value is “No IP” and the Emax is 8%. Also, in assay [2], the concentration giving a half-maximal response (EC50) amounted to 0.247 µM and the Emax came out at 59%.

For `CCOc1cccc([C@@](O)(C(=O)N(C)CCCC2CCN(c3ccc(C(=O)N(C)C)c(Cl)c3)CC2)C(F)(F)F)c1` [Example 4-2, (R)-2-chloro-4-(4-(3-(2-(3-ethoxyphenyl)-3,3,3-trifluoro-2-hydroxy-N-methylpropanamido)propyl)piperidin-1-yl)-N,N-dimethylbenzamide], in assay [1], the “LXR alpha IP (nM)” value is listed as “No IP” and the Emax turned out to be 0%. Besides, in assay [2], the midpoint of the response, the EC50, lay at 0.217 µM and the Emax was determined as 49%.

On to `CN(C)C(=O)c1ccc(N2CCC(CCCN(C)C(=O)[C@](O)(c3cccc(C4CC4)c3)C(F)(F)F)CC2)cc1Cl` [Example 4-3, (R)-2-chloro-4-(4-(3-(2-(3-cyclopropylphenyl)-3,3,3-trifluoro-2-hydroxy-N-methylpropanamido)propyl)piperidin-1-yl)-N,N-dimethylbenzamide], for which, in assay [1], the “LXR alpha IP (nM)” value is “No IP” and the Emax was determined as 0%. Further, in assay [2], the EC50 stood at 0.067 µM and the Emax was determined as 53%.

Turning to `CN(C)C(=O)c1ccc(N2CCC(CCCN(C)C(=O)C(C)(C)c3ccccc3)CC2)cc1Cl` [Example 4-5, 2-chloro-4-(4-(3-(N,2-dimethyl-2-phenylpropanamido)propyl)piperidin-1-yl)-N,N-dimethylbenzamide], in assay [1], the “LXR alpha IP (nM)” value is “No IP” and the Emax amounted to 8%. In assay [2], the EC50 was determined as 0.229 µM and the Emax is 50%.

On to `CC(C)C(O)(C(=O)N(C)CCCC1CCN(c2ccc(C(=O)N(C)C)c(Cl)c2)CC1)C(F)(F)F` (stereo not drawn) [Example 4-8, 2-chloro-4-(4-(3-(2-hydroxy-N,3-dimethyl-2-(trifluoromethyl)butanamido)propyl)piperidin-1-yl)-N,N-dimethyl-benzamide], for which the 50% effective concentration (EC50) in assay [1] turned out to be 3.35 µM; in assay [2] it was 0.471 µM. The Emax turned out to be 23% in assay [1] and 73% in assay [2].

With `CCN(CC)C(=O)c1ccc(N2CCC(CCCN(C)C(=O)[C@](O)(c3cccc(OC)c3)C(F)(F)F)CC2)cc1Cl` [Example 4-9, (R)-2-chloro-N,N-diethyl-4-(4-(3-(3,3,3-trifluoro-2-hydroxy-2-(3-methoxyphenyl)-N-methylpropanamido)propyl)piperidin-1-yl)benzamide], in assay [1], the “LXR alpha IP (nM)” value is on record as “No IP” and the Emax is 0%. Further, in assay [2], the midpoint of the response, the EC50, lay at 0.072 µM and the Emax came to 40%.

The values are drawn from patent publication US10961215B2, “N-aryl and N-heteroaryl piperidine derivatives as liver X receptor beta agonists, compositions, and their use” (Merck Sharp & Dohme Corp., priority 2016, dated 2021).
